Laboratory results as given in US10590140B2, “Tetrahydropyrimidodiazepine and dihydropyridodiazepine compounds for treating pain and pain related conditions” (ESTEVE PHARMACEUTICALS, S.A., priority 2016, dated 2020).

What follows are molecules tested against human α2δ-1 subunit of Cav2.2 calcium channel (Homo sapiens (Human), UniProt P54289) (assay: Binding assay to human α2δ-1 subunit of Cav2.2 calcium channel ([3H]-Gabapentin)). Details: binding to α2δ-1, [3H]-Gabapentin; read-out: Ki (nM) α2δ-1.
How it was run: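 Radioactivity on dried GF/C filters quantified by scintillation after filtration and three cold Tris-HCl (pH 7.4) washes. Incubation ran 60 min at 27° C with [3H]-gabapentin; 10 μM pregabalin gave nonspecific binding.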

human α2δ-1 subunit of Cav2.2 calcium channel, sequence (P54289 25-1103): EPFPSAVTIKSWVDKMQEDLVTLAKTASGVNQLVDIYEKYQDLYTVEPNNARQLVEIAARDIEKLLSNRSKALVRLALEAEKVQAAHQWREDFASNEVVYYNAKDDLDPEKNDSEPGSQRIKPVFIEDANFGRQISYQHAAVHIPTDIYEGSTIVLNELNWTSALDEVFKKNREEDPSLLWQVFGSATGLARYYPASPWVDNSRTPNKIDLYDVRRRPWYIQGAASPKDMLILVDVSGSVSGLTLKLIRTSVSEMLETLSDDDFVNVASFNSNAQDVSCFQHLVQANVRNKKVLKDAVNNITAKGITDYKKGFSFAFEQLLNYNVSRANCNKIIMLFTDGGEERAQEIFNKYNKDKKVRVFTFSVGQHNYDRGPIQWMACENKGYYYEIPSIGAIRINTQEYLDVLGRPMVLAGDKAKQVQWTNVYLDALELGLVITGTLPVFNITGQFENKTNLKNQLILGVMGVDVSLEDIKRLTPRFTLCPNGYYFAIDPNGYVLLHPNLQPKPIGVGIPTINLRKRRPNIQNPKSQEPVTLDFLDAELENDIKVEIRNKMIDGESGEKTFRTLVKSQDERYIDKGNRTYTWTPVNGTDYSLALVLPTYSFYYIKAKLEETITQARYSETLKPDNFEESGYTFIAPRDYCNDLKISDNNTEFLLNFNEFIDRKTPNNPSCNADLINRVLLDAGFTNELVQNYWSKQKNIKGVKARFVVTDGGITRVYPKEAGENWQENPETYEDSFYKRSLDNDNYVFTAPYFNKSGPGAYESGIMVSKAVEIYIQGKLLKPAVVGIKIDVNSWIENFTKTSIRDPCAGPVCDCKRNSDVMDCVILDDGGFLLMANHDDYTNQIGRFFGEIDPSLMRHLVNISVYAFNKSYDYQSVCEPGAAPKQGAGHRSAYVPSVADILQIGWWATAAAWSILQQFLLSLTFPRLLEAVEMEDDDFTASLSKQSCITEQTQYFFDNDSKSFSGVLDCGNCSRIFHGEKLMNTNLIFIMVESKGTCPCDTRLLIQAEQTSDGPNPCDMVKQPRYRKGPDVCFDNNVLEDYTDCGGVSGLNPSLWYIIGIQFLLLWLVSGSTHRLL

Structure (SMILES)	Ki
CCNc1ncc2c(n1)N(C)CCN(c1cccc(-n3cnc(CN4CCC(c5cccc(O)c5)(N(C)C)CC4)c3)c1)C2=O [Example 296, 6-(3-(4-((4-(dimethylamino)-4-(3-hydroxyphenyl)piperidin-1-yl)methyl)-1H-imidazol-1-yl)phenyl)-2-(ethylamino)-9-methyl-6,7,8,9-tetrahydro-5H-pyrimido[4,5-e][1,4]diazepin-5-one]	500 to 3000 nM
CN(CCC(Oc1cccc(N2CCN(C)c3cc(Cl)ncc3C2=O)c1)c1cccs1)C(=O)OCC[Si](C)(C)C (stereo not drawn) [Example 297, 2-(trimethylsilyl)ethyl (3-(3-(8-chloro-1-methyl-5-oxo-1,2,3,5-tetrahydro-4H-pyrido[4,3-e][1,4]diazepin-4-yl)phenoxy)-3-(thiophen-2-yl)propyl)(methyl) carbamate]	> 3000 nM
CN(CC[C@H](Oc1cccc(N2CCN(C)c3cc(Cl)ncc3C2=O)c1)c1cccs1)C(=O)OCC[Si](C)(C)C [Example 298, 2-(trimethylsilyl)ethyl (S)-(3-(3-(8-chloro-1-methyl-5-oxo-1,2,3,5-tetrahydro-4H-pyrido[4,3-e][1,4]diazepin-4-yl)phenoxy)-3-(thiophen-2-yl)propyl)(methyl) carbamate]	> 3000 nM
CN(CC[C@H](Oc1ccc(CN2CCN(C)c3cc(Cl)ncc3C2=O)cc1)c1cccs1)C(=O)OCC[Si](C)(C)C [Example 299, 2-(trimethylsilyl)ethyl (S)-(3-(4-((8-chloro-1-methyl-5-oxo-1,2,3,5-tetrahydro-4H-pyrido[4,3-e][1,4]diazepin-4-yl)methyl)phenoxy)-3-(thiophen-2-yl)propyl)(methyl) carbamate]	> 3000 nM
Cc1cc2c(cn1)C(=O)N(Cc1ccc(O[C@@H](CCN(C)C(=O)OCC[Si](C)(C)C)c3cccs3)cc1)CCN2C [Example 301, 2-(trimethylsilyl)ethyl (S)-(3-(4-((1,8-dimethyl-5-oxo-1,2,3,5-tetrahydro-4H-pyrido[4,3-e][1,4]diazepin-4-yl)methyl)phenoxy)-3-(thiophen-2-yl)propyl)(methyl) carbamate]	> 3000 nM
Cc1cc2c(cn1)C(=O)N(c1cccc(OC(CCN(C)C(=O)OCC[Si](C)(C)C)c3cccs3)c1)CCN2C (stereo not drawn) [Example 302, 2-(trimethylsilyl)ethyl (3-(3-(1,8-dimethyl-5-oxo-1,2,3,5-tetrahydro-4H-pyrido[4,3-e][1,4]diazepin-4-yl)phenoxy)-3-(thiophen-2-yl)propyl) (methyl)carbamate]	> 3000 nM
CNCC(Oc1ccccc1N1CCN(C)c2nc(SC)ncc2C1=O)c1ccccc1 (stereo not drawn) [Example 319, 9-methyl-6-(2-(2-(methylamino)-1-phenylethoxy)phenyl)-2-(methylthio)-6,7,8,9-tetrahydro-5H-pyrimido[4,5-e][1,4]diazepin-5-one]	> 3000 nM
CNCC(OCc1ccccc1N1CCN(C)c2nc(SC)ncc2C1=O)c1ccccc1 (stereo not drawn) [Example 320, 9-methyl-6-(2-((2-(methylamino)-1-phenylethoxy)methyl)phenyl)-2-(methylthio)-6,7,8,9-tetrahydro-5H-pyrimido[4,5-e][1,4]diazepin-5-one]	> 3000 nM
CNCC[C@H](OCc1cccc(N2CCN(C)c3nc(N)ncc3C2=O)c1)c1ccccc1 [Example 332, (S)-2-amino-9-methyl-6-(3-((3-(methylamino)-1-phenylpropoxy)methyl)phenyl)-6,7,8,9-tetrahydro-5H-pyrimido[4,5-e][1,4]diazepin-5-one]	> 3000 nM
CCNc1ncc2c(n1)N(C)CCN(c1ccccc1COC(CCNC)c1ccccc1)C2=O (stereo not drawn) [Example 337, 2-(ethylamino)-9-methyl-6-(2-((3-(methylamino)-1-phenylpropoxy)methyl)phenyl)-6,7,8,9-tetrahydro-5H-pyrimido[4,5-e][1,4]diazepin-5-one]	> 3000 nM
CCNc1ncc2c(n1)N(C)CCN(c1ccccc1OC(CNC)c1ccccc1)C2=O (stereo not drawn) [Example 338, 2-(ethylamino)-9-methyl-6-(2-(2-(methylamino)-1-phenylethoxy)phenyl)-6,7,8,9-tetrahydro-5H-pyrimido[4,5-e][1,4]diazepin-5-one]	> 3000 nM

Now from value to molecule:

Ki	Structure (SMILES)
> 3000 nM	CN(CCC(OCc1cccc(N2CCN(C)c3cc(Cl)ncc3C2=O)c1)c1ccccc1)C(=O)OC(C)(C)C (stereo not drawn) [Example 300, tert-butyl (3-((3-(8-chloro-1-methyl-5-oxo-1,2,3,5-tetrahydro-4H-pyrido[4,3-e][1,4]diazepin-4-yl)benzyl)oxy)-3-phenylpropyl)(methyl) carbamate]
> 3000 nM	Cc1cc2c(cn1)C(=O)N(c1cccc(COC(CCN(C)C(=O)OC(C)(C)C)c3ccccc3)c1)CCN2C (stereo not drawn) [Example 303, tert-butyl (3-((3-(1,8-dimethyl-5-oxo-1,2,3,5-tetrahydro-4H-pyrido[4,3-e][1,4]diazepin-4-yl)benzyl)oxy)-3-phenylpropyl)(methyl) carbamate]
500 to 3000 nM	CNCCC(OCc1cccc(N2CCN(C)c3cc(C)ncc3C2=O)c1)c1ccccc1 (stereo not drawn) [Example 306, 1,8-dimethyl-4-(3-((3-(methylamino)-1-phenylpropoxy)methyl)phenyl)-1,2,3,4-tetrahydro-5H-pyrido[4,3-e] [1,4]diazepin-5-one]
100 to 500 nM	CCNc1ncc2c(n1)N(C)CCN(c1cccc(C(=O)OC)c1)C2=O [Example 309, methyl 3-(2-(ethylamino)-9-methyl-5-oxo-5,7,8,9-tetrahydro-6H-pyrimido[4,5-e][1,4]diazepin-6-yl)benzoate]
500 to 3000 nM	CCNc1ncc2c(n1)N(C)CCN(c1cccc(Br)c1)C2=O [Example 311, 6-(3-bromophenyl)-2-(ethylamino)-9-methyl-6,7,8,9-tetrahydro-5H-pyrimido[4,5-e][1,4]diazepin-5-one]
500 to 3000 nM	CCNc1ncc2c(n1)N(C)CCN(c1cccc(N3CCC(c4ccccc4)(N(C)C)CC3)c1)C2=O [Example 312, 6-(3-(4-(dimethylamino)-4-phenylpiperidin-1-yl)phenyl)-2-(ethylamino)-9-methyl-6,7,8,9-tetrahydro-5H-pyrimido[4,5-e][1,4]diazepin-5-one]
> 3000 nM	CCNc1ncc2c(n1)N(C)CCN(c1cccc(C(=O)O)c1)C2=O [Example 313, 3-(2-(ethylamino)-9-methyl-5-oxo-5,7,8,9-tetrahydro-6H-pyrimido[4,5-e][1,4]diazepin-6-yl)benzoic acid]
> 3000 nM	CCNc1ncc2c(n1)N(C)CCN(c1cccc(C(=O)N3CCC(c4ccccc4)(N(C)C)CC3)c1)C2=O [Example 314, 6-(3-(4-(dimethylamino)-4-phenylpiperidine-1-carbonyl)phenyl)-2-(ethylamino)-9-methyl-6,7,8,9-tetrahydro-5H-pyrimido[4,5-e][1,4]diazepin-5-one]
500 to 3000 nM	CNCCC(OCc1cccc(N2CCN(C)c3ccncc3C2=O)c1)c1ccccc1 (stereo not drawn) [Example 317, 1-methyl-4-(3-((3-(methylamino)-1-phenylpropoxy)methyl)phenyl)-1,2,3,4-tetrahydro-5H-pyrido[4,3-e][1,4]diazepin-5-one]
> 3000 nM	CNCCC(OCc1ccccc1N1CCN(C)c2nc(SC)ncc2C1=O)c1ccccc1 (stereo not drawn) [Example 318, 9-methyl-6-(2-((3-(methylamino)-1-phenylpropoxy)methyl)phenyl)-2-(methylthio)-6,7,8,9-tetrahydro-5H-pyrimido[4,5-e][1,4]diazepin-5-one]
